Data set [1] can be described thus: In-vivo pharmacokinetic study in mice. Details: species or system male CD-1 mice. The note with it: male, CD-1, mouse, plasma. As for the experimental part:
This experiment was intended to evaluate the pharmacokinetic behavior of each compound after a single intravenous injection and intragastric administration and to investigate the bioavailability after intragastric administration.
Male CD-1 mice aged 7 to 10 weeks were selected. The mice were fasted for at least 12 h before administration and were allowed to feed again 4 h after administration, with free access to water throughout the experiment.
On the day of the experiment, animals in the intravenous group were given the corresponding compound by a single injection via the tail vein at an administration volume of 5 mL/kg; animals in the oral group were given the corresponding compound by a single intragastric administration at an administration volume of 10 mL/kg. The animals were weighed before administration, and the administration volume was calculated based on their body weight. Sample collection time points: For the injection group, samples were collected at 0.083 h, 0.25 h, 0.5 h, 1 h, 2 h, 4 h, 8 h, and 24 h; for the intragastric group, samples were collected at 0.25 h, 0.5 h, 1 h, 2 h, 4 h, 6 h, 8 h, and 24 h. At each time point, approximately 30 μL of whole blood was collected via the saphenous vein, which was then used to prepare plasma for concentration determination by high performance liquid chromatography-tandem mass spectrometry (LC-MS/MS). All animals were euthanized with […] after the PK samples were taken at the last time point. The plasma concentrations were processed using a non-compartmental model of the pharmacokinetic software WmnNonlin™ Version 6.3 (Pharsight, Mountain View, CA), and the pharmacokinetic parameters were calculated using a linear log-trapezoidal method.

The test system of data set [2] is H358 cells (NCIH358_LUNG). The data set can be described thus: Anti-proliferation experiment on tumor cells with KRAS mutations, H358 (3D CellTiter-Glo). As to conditions: Homo sapiens, NCI-H358, 120 h, 5 days incubation with compound, ultra-low attachment plate. The format is cell-based. An excerpt:
Cell culture medium, penicillin/streptomycin antibiotics purchased from Wisent, and fetal bovine serum purchased from Biosera; 3D CellTiter-Glo (chemiluminescence detection reagent for cell viability) reagent purchased from Promega; Cell lines purchased from Nanjing Cobioer Biosciences Co., Ltd. and Wuhan Procell Life Science & Technology Co., Ltd; and Envision multimode microplate reader (PerkinElmer).
Different types of tumor cells were each seeded in an ultra-low attachment 96-well U-bottom plate, with 80 μL of cell suspension per well. The cell plate was incubated in a CO2 incubator overnight.
Each test compound was diluted in a 5-fold gradient to the 9th concentration (i.e., from 2 mM to 5.12 nM or from 200 μM to 0.512 nM) using a multi-channel pipette, with duplicate wells set up. 78 μL of medium was added to an intermediate plate, and the serially diluted compound was transferred to the corresponding wells of the intermediate plate at 2 μL/well. The mixture was mixed well and then transferred to the cell plate at 20 µL/well. The concentration of the compound transferred to the cell plate ranged from 10 μM to 0.0256 nM or from 1 μM to 0.00256 nM. The cell plate was then incubated in a CO2 incubator for 3-6 days.
The chemiluminescence detection reagent for cell viability was added to the cell plate at 100 μL/well, and the luminescence signals were stabilized by incubation for 10 min at room temperature. Readings were taken using the multimode microplate reader.
The original data were converted to inhibition rates and then the IC50 values were obtained by curve fitting using a four-parameter method (obtained from the “log(inhibitor) vs. response—Variable slope” model in GraphPad Prism). Table 2 illustrates the inhibitory activity of the compounds disclosed herein against the proliferation of different types of tumor cells.
Background: ATP-based viability assays read luminescence as a measure of living cells.

Where [3] appears, read: iv, injection (tail vein), dose 2 mg/kg.
[4] abbreviates: oral administration, dose 10 mg/kg.
The mark [5] stands for this setting: iv, injection (tail vein), dose 1 mg/kg.
Setting [6] is: oral 2 mg/kg vs injection 1 mg/kg.
[7] abbreviates: oral administration, dose 2 mg/kg.

From patent publication US20240409543A1, “PYRROLOPYRAZOLE SPIRO COMPOUND” (CHIA TAI TIANQING PHARMACEUTICAL GROUP CO., LTD., priority 2021, published 2024) come the findings set out here.

By AUC(0-t) is commonly meant exposure summed from dosing to a finite time, without extrapolation to infinity. Low readings indicate low exposure, high ones high exposure. In general, clearance refers to the rate of elimination divided by the concentration. The low end stands for a low capacity for elimination, the high end for a high capacity for elimination. One may read the bioavailability as the share of a dose that reaches the circulation, judged against a reference dose that is usually intravenous. What is called Cmax is the maximum level reached in the sampled fluid or tissue. A word on the IC50: it is the concentration at which inhibition is half-maximal. Regarding `Cc1nc(N2CCC3(CC2)Cn2nccc2C3N)c(CO)nc1Sc1ccnc(N)c1Cl` (stereo not drawn) [Compound 1], in data set [1] (setting [3]), the AUC(0-t) amounted to 2.53 µM·h and the clearance stood at 27.7 mL/min/kg. In data set [1] (oral 10 mg/kg vs injection 2 mg/kg), this compound showed a bioavailability of 69.5%. In data set [1] (setting [4]), this compound gave an AUC(0-t) of 8.6 µM·h and a Cmax of 3540 nM. Besides, in data set [2], the IC50 is 22.1 nM.
Turning to `CNc1nccc(Sc2nc(CO)c(N3CCC4(CC3)Cn3nccc3C4N)nc2C)c1Cl` (stereo not drawn) [Compound 2], in data set [1] (setting [5]), the AUC(0-t) came out at 1.32 µM·h and the clearance was 27 mL/min/kg. In data set [1] (setting [6]), this compound came in with a bioavailability of 83.6%. In data set [1] (setting [7]), this compound registered an AUC(0-t) of 2.04 µM·h and a Cmax of 927 nM. Further, the IC50 in data set [2] stood at 61.4 nM.
`Cc1nc(N2CCC3(CC2)Cn2nccc2C3N)c(CO)nc1Sc1cccnc1C(F)(F)F` (stereo not drawn) [Compound 4]: in data set [1] (setting [5]), the AUC(0-t) is 0.974 µM·h and the clearance is 35.5 mL/min/kg. In data set [1] (setting [6]), this compound yielded a bioavailability of 58.6%. In data set [1] (setting [7]), this compound registered an AUC(0-t) of 0.99 µM·h and a Cmax of 372 nM. Besides, the IC50 in data set [2] came out at 145 nM.
In data set [1] (setting [5]), `Cc1nc(N2CCC3(CC2)Cn2nccc2C3N)c(CO)nc1Sc1ccnc(N)c1F` (stereo not drawn) [Compound 6] showed an AUC(0-t) of 0.638 µM·h and a clearance of 68.3 mL/min/kg. The bioavailability in data set [1] (setting [6]) is 89.8%. In data set [1] (setting [7]), this compound showed an AUC(0-t) of 0.817 µM·h and a Cmax of 463 nM. Moreover, in data set [2], the IC50 worked out at 120 nM.
